From US11970462B1, “Ethyl 3-[4,4-bis(4-chlorophenyl)-2,5-dioxoimidazolidin-1-yl]propanoate as an antimicrobial compound” (KING FAISAL UNIVERSITY, priority 2024, dated 2024)

Experiments:
Assay type in all cases: cell-based
Details in all cases: after 10, 20, 40 and 60 minutes at all dilutions 1:100, 1:200, 1:400, 1:800
[1] = system: Staphylococcus aereus; experiment: Antimicrobial testing by agar dilution, St. Aereus
Experimental: (§1) The antimicrobial properties of the ethyl 3-[4,4-bis(4-chlorophenyl)-2,5-dioxoimidazolidin-1-yl]propanoate were studied by the method of agar dilution. Test solutions of each compound was prepared in concentration of 1% using dimethylformamide as a solvent then they are diluted in physiological solution to obtain the final experimental dilutions 1:100, 1:200, 1:400, 1:800. The effect of these substances are compared with furacillin in a controlable study. The testing microbes used were gram positive bacteria Staphylococcus aereus, gram negative bacteria Escherichia Coli, Pseudomonas aeruginosa and Candida albicans fungi were taken. The experiments used for this survey were meat-pentonlu agar (EPA) for cultivation of bacteria and Saburo environment for fungi. Each experiment used 1 ml of test solution on each plate 500 min. Add 2 drops of emulsified with microbes feel. All experimental samples were taken from the agar after 10, 20, 40, 60 minutes in the environment on the basis of Patrk planted. Bacteria were cultivated at a temperature of 37° C. for 1 day and the mushroom was kept in a thermostat for 2 hours at a temperature of 28° C. in the. Then results were checked.

[2] = system: Escherichia Coli; experiment: Antimicrobial testing by agar dilution, E. Coli
Experimental: as §1

[3] = system: Pseudomonas aeruginosa; experiment: Antimicrobial testing by agar dilution, Ps. aeruginosa
Experimental: as §1

[4] = system: Candida albicans; experiment: Antimicrobial testing by agar dilution, Candida albicans
Experimental: as §1

CCOC(=O)CCN1C(=O)NC(c2ccc(Cl)cc2)(c2ccc(Cl)cc2)C1=O [ethyl 3-[4,4-bis(4-chlorophenyl)-2,5-dioxoimidazolidin-1-yl]propanoate]
higher inhibition activity: inhibition activity (in words), Staphylococcus aereus [1] | inhibition activity (in words), Escherichia Coli [2] | inhibition activity (in words), Pseudomonas aeruginosa [3] | inhibition activity (in words), Candida albicans [4]
